How the values were obtained:
Protein O-GlcNAcase [1] = target: T1, Protein O-GlcNAcase (Rattus norvegicus, UniProt Q8VIJ5); test: Inhibition of OGA in rat B35 cells after 16 hrs; type: cell-based
T1 sequence (Q8VIJ5 whole entry): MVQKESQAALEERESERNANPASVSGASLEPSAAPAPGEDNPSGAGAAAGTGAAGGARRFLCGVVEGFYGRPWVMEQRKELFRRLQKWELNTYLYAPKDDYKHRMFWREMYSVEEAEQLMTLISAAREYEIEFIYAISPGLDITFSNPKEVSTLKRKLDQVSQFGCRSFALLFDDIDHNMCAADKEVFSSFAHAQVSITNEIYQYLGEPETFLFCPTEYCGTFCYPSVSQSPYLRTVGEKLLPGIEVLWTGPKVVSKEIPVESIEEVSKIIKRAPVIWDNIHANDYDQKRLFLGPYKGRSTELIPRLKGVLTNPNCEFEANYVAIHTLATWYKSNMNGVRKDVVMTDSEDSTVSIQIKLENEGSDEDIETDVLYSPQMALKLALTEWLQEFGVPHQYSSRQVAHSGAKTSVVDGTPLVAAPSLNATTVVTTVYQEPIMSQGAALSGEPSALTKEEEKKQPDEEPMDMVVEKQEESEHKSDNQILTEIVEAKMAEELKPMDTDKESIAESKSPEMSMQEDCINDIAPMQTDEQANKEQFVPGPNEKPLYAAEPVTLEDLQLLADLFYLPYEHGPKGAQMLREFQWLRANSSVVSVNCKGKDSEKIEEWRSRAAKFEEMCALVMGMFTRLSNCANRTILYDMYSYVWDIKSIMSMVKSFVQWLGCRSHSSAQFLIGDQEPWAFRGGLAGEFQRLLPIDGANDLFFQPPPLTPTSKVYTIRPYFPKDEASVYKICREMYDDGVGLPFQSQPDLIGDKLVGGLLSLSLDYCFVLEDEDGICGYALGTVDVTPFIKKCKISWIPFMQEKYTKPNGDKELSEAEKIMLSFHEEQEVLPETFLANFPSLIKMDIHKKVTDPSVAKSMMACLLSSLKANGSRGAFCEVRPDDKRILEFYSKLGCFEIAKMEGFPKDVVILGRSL

Protein O-GlcNAcase [2] = target: T2, Protein O-GlcNAcase (Homo sapiens, UniProt O60502); test: Inhibition of human His-tagged OGA using fluorescein mono-beta-D-([…]) glucopyranoside as substrate after 60 mins by fluorescence assay
T2 sequence (O60502 whole entry): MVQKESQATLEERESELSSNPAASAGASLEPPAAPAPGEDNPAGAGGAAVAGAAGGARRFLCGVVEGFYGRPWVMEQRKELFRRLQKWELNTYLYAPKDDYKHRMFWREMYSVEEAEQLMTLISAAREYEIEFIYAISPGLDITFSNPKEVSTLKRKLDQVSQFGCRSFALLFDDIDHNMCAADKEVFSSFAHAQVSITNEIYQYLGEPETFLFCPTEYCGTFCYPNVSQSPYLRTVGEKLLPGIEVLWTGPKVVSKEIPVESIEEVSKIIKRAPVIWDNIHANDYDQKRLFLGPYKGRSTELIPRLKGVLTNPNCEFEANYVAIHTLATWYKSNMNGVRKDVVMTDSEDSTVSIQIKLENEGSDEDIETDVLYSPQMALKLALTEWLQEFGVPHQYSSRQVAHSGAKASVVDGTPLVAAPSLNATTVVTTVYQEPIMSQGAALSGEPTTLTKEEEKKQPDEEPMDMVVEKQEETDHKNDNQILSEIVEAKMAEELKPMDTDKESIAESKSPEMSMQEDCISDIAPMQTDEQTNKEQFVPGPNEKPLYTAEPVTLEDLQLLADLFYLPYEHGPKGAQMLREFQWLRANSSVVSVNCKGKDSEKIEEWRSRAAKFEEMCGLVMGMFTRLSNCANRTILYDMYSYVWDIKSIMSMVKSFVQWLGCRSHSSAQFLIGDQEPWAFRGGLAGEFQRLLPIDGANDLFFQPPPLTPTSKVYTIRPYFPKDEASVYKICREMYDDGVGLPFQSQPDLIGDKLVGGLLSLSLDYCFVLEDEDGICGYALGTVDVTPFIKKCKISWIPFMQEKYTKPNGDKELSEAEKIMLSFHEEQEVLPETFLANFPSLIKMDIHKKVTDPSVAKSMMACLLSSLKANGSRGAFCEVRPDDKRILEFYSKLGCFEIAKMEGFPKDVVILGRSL

Row | EC50 (Protein O-GlcNAcase [1]) [nM] | IC50 (Protein O-GlcNAcase [2]) [nM] | SMILES
1 | 1000 | 1000 | CC(=O)Nc1ncc(CN2CCC(F)(c3ccccc3)CC2)s1
2 | < 200 | < 200 | CC(=O)Nc1ncc(CN2CCC(c3cccc(C)c3)CC2)s1
3 | 10000 | 1000 | COC(=O)Nc1ncc(CN2CCC(c3ccccc3)CC2)s1
4 | 200 | < 200 | CC(=O)Nc1ncc(CN2CCC(c3ccccc3)CC2)s1

— ChEMBL document CHEMBL3352179, “Inhibition of O-GlcNAcase (OGA): A Potential Therapeutic Target to Treat Alzheimer's Disease” (ACS Med Chem Lett, 2014)
